Measured values: US10597398B2, “Suppression and regeneration promoting effect of low molecular weight compound on cancer and fibrosis” (NATIONAL UNIVERSITY CORPORATION TOTTORI UNIVERSITY, priority 2015, dated 2020)

Key:
Assay type in all cases: cell-based, human
[1] = system: LX-2 cells; test: Growth inhibitory effect on LX-2 cells; conditions: 100 μM
[2] = system: Wnt/β-catenin signaling; test: Inhibitory effect on Wnt/β-catenin signaling in mesenchymal stem cells (E7-TCF4 luciferase)
Description: A pTCF4-CMVpro-GL4.20 plasmid vector, having 3 copies of TCF4 motifs (CCT TTG ATC) upstream of aCMV promoter in a multiple cloning site of pGL4.20 (Promega Corp., Fitchburg, Wis.), was linearized and stably transfected into UE7T-13 cells to prepare E7-TCF4 cells. Also, a pCMVpro-GL4.20 plasmid vector, having a CMV promoter in a multiple cloning site of pGL4.20, was linearized and stably transfected into UE7T-13 cells. The resulting stable cells (E7-CMV cells) were cultured, like UE7T-13 cells, in 10% FBS/DMEM containing 0.25 μg/mL puromycin.
UE7T-13 cells were used to measure Wnt/β-catenin signaling activity. The concentrations of the respective compounds were as described in FIG. 42. Each control sample used was 0.1% DMSO, a solvent for each compound.
First, 70 to 90% confluent E7-TCF4 cells and E7-CMV cells were harvested and seeded (n=3) at 1.6758×10^4 cells/well of a 24-well plate (9.0×10^3 cells/cm^2). One day after that, each compound was added to the cells and the mixture was cultured at 37° C. Day 4 after the compound addition, the culture medium was changed.
At day 1, 4, or 8 after the compound treatment, the culture medium was discarded, and 100 μL of room temperature 5×Passive Lysis Buffer (PLB), which had been diluted 5-fold with MilliQ water, was added to each well. Next, the plate was shaken at room temperature for 15 min and was then frozen at −30° C. overnight. A Luciferase Assay Substrate was diluted with 10 mL of room temperature Luciferase Assay Buffer II to prepare Luciferase Assay Reagent II (LARII). The frozen PLB lysate samples were thawed and permeabilized for 15 min. Then, 10 μL aliquots were added to wells of a 96-well white plate. While 50 μL aliquots of LARII were each added to each well, luminescence was quantified by using a 1420 multi-label counter ARVO MX to determine firefly luciferase activity.

[3] = system: HuH-7 cells; test: Growth inhibitory effect on cancer cells (WST assay), Example 2.3; conditions: for IC50: HuH-7 cells, WST assay, concentrations 0-50 μM, control 0.1% DMSO; for IC50 compared with IC-2: comparison with IC-2
Description: HuH-7 cells, a human liver cancer cell line, were cultured on 10-cm cell culture dishes (TPP Techno Plastic Products AG, Trasadingen, Switzerland) by using DMEM under conditions at 5% CO2, 37° C., and 100% humidity. When the cells were 70 to 90% confluent, 200 μL of 0.25% Trypsin/1 mM EDTA solution, which had been prepared by diluting the stock solution 10-fold with PBS (−), was added to detach the cells. Then, the cells were centrifuged at 1000 rpm for 3 min at room temperature. The cells recovered were subcultured at a 1:4 split ratio.
First, 70 to 90% confluent HuH-7 cells were harvested and seeded (n=3) at 5×10^3 cells/well of a 96-well plate (TPP). After 24 h, each compound was added to the cells and the mixture was cultured at 37° C. The concentrations of each compound were 0, 10, 20, 30, 40, and 50 μM. For IC-2-506-1, however, the concentrations used were 0, 10, 20, 25, 30, 40, and 50 μM. Each control sample (0 μM) used was 0.1% DMSO, a solvent for each compound.
Next, 0, 24, 48, and 96 h after the compound treatment, 100 μIL of DMEM-diluted 10% Cell Counting Kit-8 (DOJINDO LABORATORIES, Kumamoto) was added. The mixture was incubated at 37° C. for 60 min and its absorbance (at a measurement wavelength of 450 nm/control wavelength of 600 nm) was measured by using a Sunrise Rainbow RC (Tecan Group Ltd., Mannedorf, Switzerland). Absorbance for the cells alone was calculated by subtracting, from the reading obtained, absorbance for 10% Cell Counting Kit-8 alone.
The “*” in figures indicates a significant difference of p<0.05 between 0.1% DMSO and each compound; and the “**” indicates a significant difference of p<0.01 (the same applies to all the figures in Examples).

[4] = system: cancer stem cells (CD44) in HuH-7 cells; test: Inhibitory effect on cancer stem cells (FCM analysis of CD44), Example 2.4; conditions: for inhibitory effect on cancer stem cells compared with IC-2: comparison with IC-2
Description: CD44, a cancer stem cell marker, was used as an indicator to examine an inhibitory effect of each compound on cancer stem cells. The concentrations of the respective compounds were as described in FIG. 32. Each control sample used was 0.1% DMSO, a solvent for each compound. In the figures, the “‡” indicates a significant difference of p<0.01.
First, 70 to 90% confluent HuH-7 cells were harvested and seeded at 1.5×10^6 cells per 10-cm cell culture dish. After 24 h, each compound was added to the cells and the mixture was cultured at 37° C. At 48 h after the compound treatment, the cells were harvested from each culture dish. The cells were centrifuged at 1000 rpm and at 4° C. for 3 min to remove a supernatant and were then washed twice with 1 mL of 0.5% FBS/2 mM EDTA/PBS. Next, the cells were suspended in 500 μL of 5% BSA/0.5% FBS/2 mM EDTA/PBS for blocking at 4° C. for 15 min. Then, 5 μL of a mouse anti-human CD44 monoclonal antibody (156-3C11, Cell Signaling Technology Inc., Danvers, Mass.) was added to 500 μL of the cell suspension. The mixture was resuspended and subjected to a primary antibody reaction in a dark room at 4° C. for 30 min. After that, the cells were washed 3 times with 1 mL of 0.5% FBS/2 mM EDTA/PBS. Subsequently, 100 μL of Alexa Fluor 488-labeled IgG (H+L) (ab150113, Abcam Ltd., Cambridge, UK), which had been diluted 200-fold with 5% BSA/0.5% FBS/2 mM EDTA/PBS, was added and the cells were suspended. Then, a secondary antibody reaction was carried out in a dark room at 4° C. for 30 min. After that, the cells were washed 3 times with 1 mL of 0.5% FBS/2 mM EDTA/PBS. Thereafter, the cells were suspended in 500 μL of 0.5% FBS/2 mM EDTA/PBS and were made to pass through a 40 μm-mesh column (Becton, Dickinson and Company, Franklin Lakes, N.J.). A Beckman Coulter-Moflo XDP (Beckman Coulter Inc., Fullerton, Calif.) was used for analysis. Following the analysis, further analysis was conducted by adding 2 μL of 0.25 mg/mL Propidium Iodide (PI). The same experiment was repeated four times.

[5] = system: LX-2 cells; test: Anti-fibrosis effect, summary statements on Example 3 (marker not specified); conditions: concentration even lower than that of IC-2
Text: α-Smooth muscle actin (α-SMA), a fibrosis marker, was used as an indicator, and RNA was collected from LX-2 cells treated with each low-molecular-weight compound. Next, an inhibitory effect on fibrosis was examined by real-time RT-PCR.
In addition, instead of α-SMA, another fibrosis marker collagen, type I, alpha 1 (COL1A1) was used as an indicator, and substantially the same protocol was repeated. The concentrations of each compound used were as described in FIG. 34. Each control sample used was 0.1% DMSO, a solvent for each compound. Here, COL1A1 primers used were 5′-CCT CCA GGG CTC CAA CGA G-3′ and 5′-TCAATCACTGTCTTGCCCCA-3′. The annealing was performed at 58° C. for 5 sec. The measurement results were obtained by dividing the calculated value for the COL1A1 gene by the calculated value for the GAPDH gene.

[6] = system: Wnt/β-catenin signaling; test: Inhibitory effect on Wnt/β-catenin signaling in liver cancer cells (HuH7-TCF4 luciferase); conditions: concentration equal to or lower than that of IC-2
Description: A pTCF4-CMVpro-GL4.20 plasmid vector, which had been constructed by inserting 3 copies of TCF4 motifs (CCT TTG ATC) upstream of a CMV promoter into a multiple cloning site of pGL4.20 (Promega Corp., Fitchburg, Wis.), was linearized and stably transfected into the HuH-7 cells. The resulting stable cells (HuH7-TCF4 cells) and HuH-7 cells were likewise cultured.
While each compound was added at concentrations where the growth of HuH-7 cells was reduced to about 50% or less, Wnt/β-catenin signaling activity was measured. The concentrations of the respective compounds were as described in FIG. 40. Control samples used were 0.1% DMSO, a solvent for each compound, and 0.5 μM 5-FU.
First, 70 to 90% confluent HuH7-TCF4 cells were harvested and seeded (n=3) at 5.0×10^4 cells/well of a 24-well plate (TPP). After 24 h, each compound was added to the cells and the mixture was cultured at 37° C.
At 48 h after the compound treatment, the culture medium was discarded, and 100 μL of room temperature 5×Passive Lysis Buffer (PLB) (Promega Corp., Fitchburg, Wis.), which had been diluted 5-fold with MilliQ water, was added to each well. Next, the plate was shaken at room temperature for 15 min and was then frozen at −30° C. overnight. A Luciferase Assay Substrate was diluted with 10 mL of room temperature Luciferase Assay Buffer II to prepare Luciferase Assay Reagent II (LARII) (Promega). The frozen PLB lysate samples were thawed and permeabilized for 15 min. Then, 10 μL aliquots were added to wells of a 96-well white plate (Corning Inc., Corning, N.Y.). While 50 μL aliquots of LARII were each added to each well, luminescence was quantified by using a 1420 multi-label counter ARVO MX (PerkinElmer Singapore Pte Ltd., Singapore) to determine firefly luciferase activity. Note that a significant difference was evaluated by using (two-tailed) Student's t-test. The “*” in figures indicates a significant difference of p<0.05 between 0.1% DMSO and each compound; and the “**” indicates a significant difference of p<0.01 (the same applies to all the figures in Examples).

[7] = system: mesenchymal stem cell; test: Hepatocyte differentiation-inducing effect, summary statements on Example 4 (readout not specified); conditions: low concentration
Text: Albumin, a hepatocyte marker, was used as an indicator, and RNA was collected from cells treated with each compound. Next, a hepatocyte differentiation-inducing effect was examined by real-time RT-PCR. The concentrations of the respective compounds were as described in FIG. 35. Each control sample used was 0.1% DMSO, a solvent for each compound.
By using urea synthesis, a hepatocyte function, as an indicator, a hepatocyte differentiation-inducing effect of each compound was investigated.
The cells treated with each compound were subjected to immunofluorescence analysis of albumin, a hepatocyte marker, to investigate a hepatocyte differentiation-inducing effect. The concentrations of the respective compounds were as described in FIG. 37. Each control sample used was 0.1% DMSO, a solvent for each compound.
By using glycogen synthesis, a hepatocyte function, as an indicator, a hepatocyte differentiation-inducing effect of each compound was investigated.

SMILES	IC50 [3] [µM]	IC50 compared with IC-2 [3]	hepatocyte-inducing effect at low concentration [7]	growth inhibitory effect on LX-2 cells [1]	inhibitory effect on cancer stem cells compared with IC-2 [4]	anti-fibrosis effect compared with IC-2, lower concentration [5]	inhibitory effect on Wnt/β-catenin signaling pathway in liver cancer cells compared with IC-2 [6]	further results
NC(=O)N1CCC(=O)N2C(Cc3ccccc3)C(=O)N(Cc3cccc4ccccc34)CC12 (stereo not shown) [Compound 9b-CONH2]				Neither 100 μM of 9b nor 9b-CONH2 exhibited a growth inhibitory effect				
O=C1C(Cc2ccccc2)N2C(=O)CCNC2CN1Cc1cccc2ccccc12 (stereo not shown) [Compound 9b]				Neither 100 μM of 9b nor 9b-CONH2 exhibited a growth inhibitory effect				inhibitory effect on Wnt/β-catenin signaling in mesenchymal stem cells ([2]; E7-TCF4 cells, day 8 after compound addition, compared with control 0.1% DMSO): all the compounds except for IC-2-Ar-OMe, 9b, and 7c-NT exhibited a significant inhibitory effect
O=C1C(Cc2ccccc2)N2C(=O)CCN(C(=O)NCc3ccc(F)cc3)C2CN1Cc1cccc2ccccc12 (stereo not shown) [IC-2-F]	22.2	lower IC50 than IC-2	exerted a hepatocyte-inducing effect		more potent inhibitory effect on cancer stem cells than IC-2	more potent anti-fibrosis effect	more potent inhibitory effect	

Continued, in another order:

IC50 [3] [µM]	IC50 compared with IC-2 [3]	hepatocyte-inducing effect at low concentration [7]	SMILES	growth inhibitory effect on LX-2 cells [1]	inhibitory effect on cancer stem cells compared with IC-2 [4]	anti-fibrosis effect compared with IC-2, lower concentration [5]	inhibitory effect on Wnt/β-catenin signaling pathway in liver cancer cells compared with IC-2 [6]	further results
28.1			O=C1C(Cc2ccccc2)N2C(=O)CCN(C(=O)NCc3ccc([N+](=O)[O-])cc3)C2CN1Cc1cccc2ccccc12 (stereo not shown) [IC-2-NO2]		more potent inhibitory effect on cancer stem cells than IC-2		more potent inhibitory effect	inhibitory effect on Wnt/β-catenin signaling pathway in mesenchymal stem cells compared with IC-2 ([2]; concentration equal to or lower than that of IC-2): more potent inhibitory effect
11.8	lower IC50 than IC-2	exerted a hepatocyte-inducing effect	CC(C)(C)[Si](C)(C)Oc1ccc(CNC(=O)N2CCC(=O)N3C(Cc4ccccc4)C(=O)N(Cc4cccc5ccccc45)CC23)cc1 (stereo not shown) [IC-2-OTBS]			more potent anti-fibrosis effect		anti-tumor effect compared with IC-2 ([3]; at a concentration lower than that of IC-2): more potent anti-tumor effect; inhibitory effect on cancer stem cells at a concentration lower than that of IC-2 ([4]; concentration even lower than that of IC-2): exerted an inhibitory effect on cancer stem cells
